Measurements taken from patent US20240376163A1, “PEPTIDE FOR INHIBITING CALCINEURIN AND USE THEREOF” (Seoul National University R&DB Foundation, priority 2023, published 2024).

Tested on: Jurkat T cells
Assay: mRNA sequencing of activated Jurkat T cells
Format: cell-based, human

SMILES: C=CC[C@@H]1/C=C(\C)C[C@H](C)C[C@H](OC)[C@H]2O[C@@](O)(C(=O)C(=O)N3CCCC[C@H]3C(=O)O[C@H](/C(C)=C/[C@@H]3CC[C@@H](O)[C@H](OC)C3)[C@H](C)[C@@H](O)CC1=O)[C@H](C)C[C@@H]2OC [FK506, Tacrolimus, reference compound]
- CRIM1 FPKM (P + I): 0.305 FPKM
- CRTAM FPKM (P + I): 3.325 FPKM
- CSF1 FPKM (P + I): 1.706 FPKM
- CSF2 FPKM (P + I): 0 FPKM
- CST7 FPKM (P + I): 2.338 FPKM
- CXCL8 FPKM (P + I): 0.937 FPKM
- CXCR3 FPKM (P + I): 0.503 FPKM
- DSTYK FPKM (P + I): 3.501 FPKM
- FBXO34 FPKM (P + I): 14.612 FPKM
- FMNL2 FPKM (P + I): 2.726 FPKM
- FOSL2 FPKM (P + I): 2.204 FPKM
- FOXO1 FPKM (P + I): 1.77 FPKM
- FXYD5 FPKM (P + I): 41.346 FPKM
- FYN FPKM (P + I): 16.523 FPKM
- GFOD1 FPKM (P + I): 4.187 FPKM
- GRK5 FPKM (P + I): 8.481 FPKM
- GTDC1 FPKM (P + I): 4.629 FPKM
- IL2 FPKM (P + I): 0.287 FPKM
- IL3 FPKM (P + I): 0.062 FPKM
- IL21R FPKM (P + I): 2.244 FPKM
- IL21R-AS1 FPKM (P + I): 1.927 FPKM
- IQCJ-SCHIP1 FPKM (P + I): 1.657 FPKM
- IRF4 FPKM (P + I): 0.423 FPKM
- IRF8 FPKM (P + I): 1.19 FPKM
- ISM1 FPKM (P + I): 0.726 FPKM
- JAK2 FPKM (P + I): 5.248 FPKM
- KCNK1 FPKM (P + I): 10.967 FPKM
- KCNK5 FPKM (P + I): 3.906 FPKM
- LAMP3 FPKM (P + I): 6.412 FPKM
- LAX1 FPKM (P + I): 8.052 FPKM
- LIF FPKM (P + I): 0.143 FPKM
- LOC729603 FPKM (P + I): 2.179 FPKM
- LRRC8B FPKM (P + I): 3.555 FPKM
- LTBP4 FPKM (P + I): 8.427 FPKM
- MAP2K3 FPKM (P + I): 41.815 FPKM
- MIR6775 FPKM (P + I): 19.643 FPKM
- MIR6821 FPKM (P + I): 13.626 FPKM
- MYO1D FPKM (P + I): 4.59 FPKM
- NDFIP1 FPKM (P + I): 22.485 FPKM
- NFATC1 FPKM (P + I): 3.793 FPKM
- NPDC1 FPKM (P + I): 4.328 FPKM
- NR4A2 FPKM (P + I): 0.04 FPKM
- NTRK1 FPKM (P + I): 0.836 FPKM
- PAM FPKM (P + I): 1.483 FPKM
- PDGFA FPKM (P + I): 3.25 FPKM
- PELI1 FPKM (P + I): 8.175 FPKM
- PHACTR2 FPKM (P + I): 2.927 FPKM
- PHEX FPKM (P + I): 0.213 FPKM
- PIM3 FPKM (P + I): 42.827 FPKM
- PKIA FPKM (P + I): 13.962 FPKM
- PLK3 FPKM (P + I): 5.257 FPKM
- PLS3 FPKM (P + I): 0.052 FPKM
- POU2AF1 FPKM (P + I): 2.274 FPKM
- PPIF FPKM (P + I): 50.291 FPKM
- PTPN6 FPKM (P + I): 20.906 FPKM
- PTPN22 FPKM (P + I): 6.37 FPKM
- RDH10 FPKM (P + I): 5.856 FPKM
- REL FPKM (P + I): 4.749 FPKM
- RGS16 FPKM (P + I): 1.172 FPKM
- SCHIP1 FPKM (P + I): 1.535 FPKM
- SERPINB2 FPKM (P + I): 2.905 FPKM
- SHC4 FPKM (P + I): 0.663 FPKM
- SLAMF1 FPKM (P + I): 0.217 FPKM
- SLC35E4 FPKM (P + I): 0.952 FPKM
- SORBS1 FPKM (P + I): 0.4 FPKM
- SPRY1 FPKM (P + I): 4.074 FPKM
- STAT5A FPKM (P + I): 3.347 FPKM
- TAGAP FPKM (P + I): 4.352 FPKM
- TBC1D4 FPKM (P + I): 12.549 FPKM
- TBC1D20 FPKM (P + I): 17.7 FPKM
- TDRD9 FPKM (P + I): 1.245 FPKM
- TIAM2 FPKM (P + I): 0.27 FPKM
- TM4SF1 FPKM (P + I): 0.439 FPKM
- TNFRSF4 FPKM (P + I): 2.933 FPKM
- TNFSF9 FPKM (P + I): 2.568 FPKM
- TNFSF14 FPKM (P + I): 1.023 FPKM
- TNS3 FPKM (P + I): 0.678 FPKM
- VAMP1 FPKM (P + I): 14.793 FPKM
- XCL1 FPKM (P + I): 0 FPKM
- XCL2 FPKM (P + I): 0 FPKM
- ZNF704 FPKM (P + I): 0.014 FPKM
- ZNF827 FPKM (P + I): 1.521 FPKM
- ABCB10 FPKM (P+I): 10.164 FPKM
- ACTG1 FPKM (P+I): 1002.221 FPKM
- ADAM19 FPKM (P+I): 5.532 FPKM
- ADD3 FPKM (P+I): 13.6 FPKM
- ADORA2B FPKM (P+I): 8.219 FPKM
- AGO2 FPKM (P+I): 13.242 FPKM
- AIM1 FPKM (P+I): 37.047 FPKM
- APOBEC3A_B FPKM (P+I): 10.242 FPKM
- APOBEC3B FPKM (P+I): 41.16 FPKM
- APOBEC3C FPKM (P+I): 16.851 FPKM
- APOBEC3D FPKM (P+I): 10.187 FPKM
- APOL2 FPKM (P+I): 89.267 FPKM
- APOL6 FPKM (P+I): 46.937 FPKM
- AQP3 FPKM (P+I): 66.037 FPKM
- ARAP2 FPKM (P+I): 15.321 FPKM
- ARC FPKM (P+I): 9.966 FPKM
- ARHGAP23 FPKM (P+I): 2.576 FPKM
- ARHGEF6 FPKM (P+I): 35.366 FPKM
- ASAP1 FPKM (P+I): 7.765 FPKM
- ATG14 FPKM (P+I): 7.863 FPKM
- ATP2B4 FPKM (P+I): 16.449 FPKM
- ATXN1 FPKM (P+I): 1.798 FPKM
- BACH2 FPKM (P+I): 29.7 FPKM
- BAI2 FPKM (P+I): 1.395 FPKM
- BAIAP2-AS1 FPKM (P+I): 2.72 FPKM
- BATF3 FPKM (P+I): 36.514 FPKM
- BHLHE40 FPKM (P+I): 6.563 FPKM
- BTG1 FPKM (P+I): 22.099 FPKM
- C1QL1 FPKM (P+I): 1.444 FPKM
- C1orf233 FPKM (P+I): 0.79 FPKM
- C3 FPKM (P+I): 0.489 FPKM
- C9orf9 FPKM (P+I): 7.304 FPKM
- C10orf54 FPKM (P+I): 0.382 FPKM
- C16orf46 FPKM (P+I): 2.655 FPKM
- CASC15 FPKM (P+I): 4.027 FPKM
- CBX4 FPKM (P+I): 12.478 FPKM
- CBX6 FPKM (P+I): 42.006 FPKM
- CCDC64 FPKM (P+I): 10.044 FPKM
- CCDC71L FPKM (P+I): 13.763 FPKM
- CCL1 FPKM (P+I): 0 FPKM
- CCL3L1 FPKM (P+I): 0 FPKM
- CCL4 FPKM (P+I): 0 FPKM
- CCL4L1 FPKM (P+I): 0.087 FPKM
- CCL4L2 FPKM (P+I): 0.087 FPKM
- CCND2 FPKM (P+I): 0.558 FPKM
- CD1A FPKM (P+I): 4.589 FPKM
- CD1C FPKM (P+I): 3.288 FPKM
- CD1D FPKM (P+I): 2.553 FPKM
- CD27-AS1 FPKM (P+I): 5.11 FPKM
- CD27 FPKM (P+I): 3.098 FPKM
- CD55 FPKM (P+I): 6.015 FPKM
- CD69 FPKM (P+I): 125.597 FPKM
- CD83 FPKM (P+I): 35.907 FPKM
- CDCA7 FPKM (P+I): 26.911 FPKM
- CDT1 FPKM (P+I): 11.013 FPKM
- CFD FPKM (P+I): 0.937 FPKM
- CHI3L2 FPKM (P+I): 58.214 FPKM
- CHRNA9 FPKM (P+I): 4.046 FPKM
- CLEC2B FPKM (P+I): 60.911 FPKM
- CNR2 FPKM (P+I): 0.674 FPKM
- CORO2A FPKM (P+I): 1.862 FPKM
- CRIM1 FPKM (P+I): 0.305 FPKM
- CRTAM FPKM (P+I): 3.325 FPKM
- CSRNP1 FPKM (P+I): 26.052 FPKM
- CST7 FPKM (P+I): 2.338 FPKM
- CTDSPL FPKM (P+I): 1.758 FPKM
- CTTN FPKM (P+I): 11.037 FPKM
- CXCL3 FPKM (P+I): 3.147 FPKM
- CXCL9 FPKM (P+I): 0.839 FPKM
- CXCL10 FPKM (P+I): 0.352 FPKM
- CXCR3 FPKM (P+I): 0.503 FPKM
- CYB5RL FPKM (P+I): 1.807 FPKM
- DFNA5 FPKM (P+I): 12.016 FPKM
- DHFR FPKM (P+I): 7.656 FPKM
- DNAJB11 FPKM (P+I): 107.644 FPKM
- DNAJC1 FPKM (P+I): 13.765 FPKM
- DNPEP FPKM (P+I): 31.154 FPKM
- DOK2 FPKM (P+I): 27.372 FPKM
- DPY19L2P2 FPKM (P+I): 2.937 FPKM
- DPYSL2 FPKM (P+I): 11 FPKM
- DTX3L FPKM (P+I): 48.022 FPKM
- DUSP2 FPKM (P+I): 123.613 FPKM
- DUSP5 FPKM (P+I): 116.404 FPKM
- E2F1 FPKM (P+I): 7.783 FPKM
- E2F2 FPKM (P+I): 3.317 FPKM
- EIF2AK3 FPKM (P+I): 9.332 FPKM
- ENC1 FPKM (P+I): 9.299 FPKM
- ENHO FPKM (P+I): 1.746 FPKM
- ENPP1 FPKM (P+I): 124.248 FPKM
- EPAS1 FPKM (P+I): 5.846 FPKM
- EPHA3 FPKM (P+I): 2.019 FPKM
- ERO1LB FPKM (P+I): 5.101 FPKM
- ETV5 FPKM (P+I): 15.576 FPKM
- EVI2A FPKM (P+I): 15.078 FPKM
- FAM46C FPKM (P+I): 5.191 FPKM
- FAM111B FPKM (P+I): 5.291 FPKM
- FASLG FPKM (P+I): 1.518 FPKM
- FBXO34 FPKM (P+I): 14.612 FPKM
- FMNL2 FPKM (P+I): 2.726 FPKM
- FOS FPKM (P+I): 7.329 FPKM
- FOXO1 FPKM (P+I): 1.77 FPKM
- FST FPKM (P+I): 2.244 FPKM
- FURIN FPKM (P+I): 23.264 FPKM
- FYB FPKM (P+I): 11.107 FPKM
- GAMT FPKM (P+I): 10.915 FPKM
- GBP1 FPKM (P+I): 70.024 FPKM
- GBP2 FPKM (P+I): 27.591 FPKM
- GBP3 FPKM (P+I): 69.945 FPKM
- GBP4 FPKM (P+I): 4.384 FPKM
- GBP5 FPKM (P+I): 197.514 FPKM
- GDPD5 FPKM (P+I): 29.626 FPKM
- GEM FPKM (P+I): 2.495 FPKM
- GINS2 FPKM (P+I): 16.935 FPKM
- GLIPR2 FPKM (P+I): 15.84 FPKM
- GNAQ FPKM (P+I): 21.057 FPKM
- GNG2 FPKM (P+I): 25.67 FPKM
- GPR3 FPKM (P+I): 7.96 FPKM
